In US9353107B2 (Aurigene Discovery Technologies Limited, priority 2012, dated 2016):
Where a name gives a salt, the structure may show the parent alone.

Target: T1, recombinant human ALK enzyme (ALK WT) (Homo sapiens, UniProt Q9UM73)
T1 construct: purchased Carna Biosciences 08-518
Test: ALK WT cell free enzymatic assay (TR-FRET)
Format: biochemical
Conditions: 1 μM ATP; for IC50: 10 point dose response; for inhibition at 0.1 µM: compound at 100 nM; for inhibition at 0.1 µM / inhibition at 1 µM: 30 min pre-incubation; for inhibition at 1 µM: compound at 1 μM
Procedure, shortened: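 Read-out is TR-FRET (665 nm/615 nm ratio) using an Eu-labeled anti-phosphotyrosine antibody. Compound is pre-incubated 30 min with recombinant human ALK, then reacted 30 min with 1 μM ATP and 40 nM Poly GT substrate. Values are percent inhibition at 100 nM and 1 μM, plus IC50 from 10-point variable-slope regression.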

T1 sequence (Q9UM73 1058-1620 limits assumed): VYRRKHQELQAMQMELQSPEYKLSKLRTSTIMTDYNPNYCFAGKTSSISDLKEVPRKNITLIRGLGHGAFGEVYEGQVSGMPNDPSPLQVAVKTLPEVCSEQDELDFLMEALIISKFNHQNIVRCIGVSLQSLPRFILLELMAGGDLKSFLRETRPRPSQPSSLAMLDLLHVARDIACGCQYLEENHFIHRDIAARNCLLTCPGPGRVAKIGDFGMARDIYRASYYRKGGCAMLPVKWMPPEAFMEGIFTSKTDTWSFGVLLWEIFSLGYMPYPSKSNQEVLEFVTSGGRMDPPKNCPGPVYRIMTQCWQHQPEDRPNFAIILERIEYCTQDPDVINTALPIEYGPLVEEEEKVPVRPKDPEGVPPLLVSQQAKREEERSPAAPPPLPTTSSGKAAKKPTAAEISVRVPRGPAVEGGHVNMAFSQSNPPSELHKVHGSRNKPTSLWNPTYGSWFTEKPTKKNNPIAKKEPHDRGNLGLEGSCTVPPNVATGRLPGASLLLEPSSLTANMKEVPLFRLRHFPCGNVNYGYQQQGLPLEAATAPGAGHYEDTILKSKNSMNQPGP

| SMILES | IC50 | inhibition at 0.1 µM | inhibition at 1 µM |
| --- | --- | --- | --- |
| CS(=O)(=O)Nc1cc(-c2cnc3[nH]cc(-c4cnn(CCc5ccccc5)c4)c3c2)ccc1N1CCNCC1 [Example 107, N-(5-(3-(1-phenethyl-1H-pyrazol-4-yl)-1H-pyrrolo[2,3-b]pyridin-5-yl)-2-(piperazin-1-yl)phenyl) methanesulfonamide hydrochloride] | < 50 nM | 99% | 100% |
| NC(=O)N1CCN(c2ccc(-c3cnc4[nH]cc(-c5cnn(Cc6cccc(F)c6)c5)c4c3)cc2)CC1 [Example 108, 4-(4-(3-(1-(3-fluorobenzyl)-1H-pyrazol-4-yl)-1H-pyrrolo[2,3-b]pyridin-5-yl)phenyl)piperazine-1-carboxamide] | < 50 nM | 97% | 100% |
| CN1CCN(c2ccc(-c3cnc4[nH]cc(-c5cnn(CCc6ccccc6)c5)c4c3)cc2)CC1 [Example 109, 5-(4-(4-methylpiperazin-1-yl)phenyl)-3-(1-phenethyl-1H-pyrazol-4-yl)-1H-pyrrolo[2,3-b]pyridine] | – | 76% | 100% |
| CS(=O)(=O)Nc1cc(-c2cnc3[nH]cc(-c4cnn(Cc5cccc(F)c5)c4)c3c2)ccc1N1CCN(CC(N)=O)CC1 [Example 110, 2-(4-(4-(3-(1-(3-fluorobenzyl)-1H-pyrazol-4-yl)-1H-pyrrolo[2,3-b]pyridin-5-yl)-2-(methylsulfonamido)phenyl)piperazin-1-yl)acetamide] | < 50 nM | 94% | 98% |
| Fc1cc(F)cc(Cn2ccc(-c3c[nH]c4ncc(-c5ccc(N6CCNCC6)cc5)cc34)n2)c1 [Example 111, 3-(1-(3,5-difluorobenzyl)-1H-pyrazol-3-yl)-5-(4-(piperazin-1-yl)phenyl)-1H-pyrrolo[2,3-b]pyridine] | < 50 nM | 82% | 100% |
| COc1cc(-c2cnc3[nH]cc(-c4cnn(Cc5cccc(F)c5)c4)c3c2)ccc1N1CCN(C[C@H](C)O)CC1 [Example 112, (S)-1-(4-(4-(3-(1-(3-fluorobenzyl)-1H-pyrazol-4-yl)-1H-pyrrolo[2,3-b]pyridin-5-yl)-2-methoxyphenyl)piperazin-1-yl)propan-2-ol] | – | 90% | 100% |
| CS(=O)(=O)Nc1cc(-c2cnc3[nH]cc(-c4ccn(Cc5cc(F)cc(F)c5)n4)c3c2)ccc1N1CCNCC1 [Example 113, N-(5-(3-(1-(3,5-difluorobenzyl)-1H-pyrazol-3-yl)-1H-pyrrolo[2,3-b]pyridin-5-yl)-2-(piperazin-1-yl)phenyl)methanesulfonamide] | < 50 nM | 90% | 97% |
| C[C@H](O)CN1CCN(c2ccc(-c3cnc4[nH]cc(-c5cnn(Cc6cccc(F)c6)c5)c4c3)cc2F)CC1 [Example 114, (S)-1-(4-(2-fluoro-4-(3-(1-(3-fluorobenzyl)-1H-pyrazol-4-yl)-1H-pyrrolo[2,3-b]pyridin-5-yl)phenyl)piperazin-1-yl)propan-2-ol] | – | 92% | 99% |
| Cc1cc(-c2cnc3[nH]cc(-c4cnn(Cc5cccc(F)c5)c4)c3c2)ccc1N1CCN(C[C@H](C)O)CC1 [Example 115, (S)-1-(4-(4-(3-(1-(3-fluorobenzyl)-1H-pyrazol-4-yl)-1H-pyrrolo[2,3-b]pyridin-5-yl)-2-methylphenyl)piperazin-1-yl)propan-2-ol] | – | 94% | 100% |
| COc1cc(N2CCN(C[C@H](C)O)CC2)ccc1-c1cnc2[nH]cc(-c3cnn(Cc4cccc(F)c4)c3)c2c1 [Example 116, (S)-1-(4-(4-(3-(1-(3-fluorobenzyl)-1H-pyrazol-4-yl)-1H-pyrrolo[2,3-b]pyridin-5-yl)-3-methoxyphenyl)piperazin-1-yl)propan-2-ol] | 50 to 250 nM | 68% | 97% |
| C[C@H](O)CN1CCN(c2ccc(-c3cnc4[nH]cc(-c5cnn(CCc6ccccc6)c5)c4c3)cc2)CC1 [Example 117, (S)-1-(4-(4-(3-(1-phenethyl-1H-pyrazol-4-yl)-1H-pyrrolo[2,3-b]pyridin-5-yl)phenyl)piperazin-1-yl)propan-2-ol] | < 50 nM | 91% | 95% |
| C[C@H](O)CN1CCN(c2ccc(-c3cnc4[nH]cc(-c5cnn(Cc6ccccc6)c5)c4c3)cc2)CC1 [Example 118, (S)-1-(4-(4-(3-(1-benzyl-1H-pyrazol-4-yl)-1H-pyrrolo[2,3-b]pyridin-5-yl)phenyl)piperazin-1-yl)propan-2-ol] | < 50 nM | 94% | 98% |
| Cc1cccc(Cn2cc(-c3c[nH]c4ncc(-c5ccc(N6CCN(C[C@H](C)O)CC6)cc5)cc34)cn2)c1 [Example 119, (S)-1-(4-(4-(3-(1-(3-methylbenzyl)-1H-pyrazol-4-yl)-1H-pyrrolo[2,3-b]pyridin-5-yl)phenyl)piperazin-1-yl)propan-2-ol] | < 50 nM | 86% | 93% |
| C[C@@H](O)CN1CCN(c2ccc(-c3cnc4[nH]cc(-c5cnn(Cc6cccc(F)c6)c5)c4c3)cc2)CC1 [Example 120, (R)-1-(4-(4-(3-(1-(3-fluorobenzyl)-1H-pyrazol-4-yl)-1H-pyrrolo[2,3-b]pyridin-5-yl)phenyl)piperazin-1-yl)propan-2-ol] | < 50 nM | 95% | 99% |
| C[C@H](O)CN1CCN(c2ccc(-c3cnc4[nH]cc(-c5cnn(Cc6cccc(F)c6)c5)c4c3)c(F)c2)CC1 [Example 121, (S)-1-(4-(3-fluoro-4-(3-(1-(3-fluorobenzyl)-1H-pyrazol-4-yl)-1H-pyrrolo[2,3-b]pyridin-5-yl)phenyl)piperazin-1-yl)propan-2-ol] | < 50 nM | 91% | 95% |
| OC1CCN(c2ccc(-c3cnc4[nH]cc(-c5cnn(Cc6cccc(F)c6)c5)c4c3)cc2)CC1 [Example 122, 1-(4-(3-(1-(3-fluorobenzyl)-1H-pyrazol-4-yl)-1H-pyrrolo[2,3-b]pyridin-5-yl)phenyl)piperidin-4-ol] | < 50 nM | 90% | 96% |
| Cc1nn(Cc2cccc(F)c2)c(C)c1-c1c[nH]c2ncc(-c3ccc(N4CCN(C[C@H](C)O)CC4)cc3)cc12 [Example 123, (2S)-1-(4-(4-(3-(1-(3-fluorobenzyl)-3,5-dimethyl-1H-pyrazol-4-yl)-1H-pyrrolo[2,3-b]pyridin-5-yl)phenyl)piperazin-1-yl)propan-2-ol] | < 50 nM | 92% | 96% |
| O=C(CC1CC1)N1CCN(c2ccc(-c3cnc4[nH]cc(-c5cnn(Cc6cccc(F)c6)c5)c4c3)cc2)CC1 [Example 124, 2-cyclopropyl-1-(4-(4-(3-(1-(3-fluorobenzyl)-1H-pyrazol-4-yl)-1H-pyrrolo[2,3-b]pyridin-5-yl)phenyl)piperazin-1-yl)ethanone] | > 250 nM | 17% | 86% |
| CS(=O)(=O)N1CCN(c2ccc(-c3cnc4[nH]cc(-c5cnn(Cc6cccc(F)c6)c5)c4c3)cc2)CC1 [Example 125, 3-(1-(3-fluorobenzyl)-1H-pyrazol-4-yl)-5-(4-(4-(methylsulfonyl)piperazin-1-yl)phenyl)-1H-pyrrolo[2,3-b]pyridine] | < 50 nM | 86% | 97% |
| OCCN1CCN(c2ccc(-c3cnc4[nH]cc(-c5cnn(Cc6cccc(F)c6)c5)c4c3)cc2)CC1 [Example 126, 2-(4-(4-(3-(1-(3-fluorobenzyl)-1H-pyrazol-4-yl)-1H-pyrrolo[2,3-b]pyridin-5-yl)phenyl)piperazin-1-yl)ethanol] | < 50 nM | 95% | 97% |
| CN(C)CC(=O)N1CCN(c2ccc(-c3cnc4[nH]cc(-c5cnn(Cc6cccc(F)c6)c5)c4c3)cc2)CC1 [Example 127, 2-(dimethylamino)-1-(4-(4-(3-(1-(3-fluorobenzyl)-1H-pyrazol-4-yl)-1H-pyrrolo[2,3-b]pyridin-5-yl)phenyl)piperazin-1-yl)ethanone] | < 50 nM | 96% | 97% |
| O=C(CO)N1CCN(c2ccc(-c3cnc4[nH]cc(-c5cnn(Cc6cccc(F)c6)c5)c4c3)cc2)CC1 [Example 128, 1-(4-(4-(3-(1-(3-fluorobenzyl)-1H-pyrazol-4-yl)-1H-pyrrolo[2,3-b]pyridin-5-yl)phenyl)piperazin-1-yl)-2-hydroxyethanone] | < 50 nM | 92% | 94% |
| Cc1c(-c2c[nH]c3ncc(-c4ccc(N5CCN(C[C@H](C)O)CC5)cc4)cc23)cnn1Cc1cccc(F)c1 [Example 129, (S)-1-(4-(4-(3-(1-(3-fluorobenzyl)-5-methyl-1H-pyrazol-4-yl)-1H-pyrrolo[2,3-b]pyridin-5-yl)phenyl)piperazin-1-yl)propan-2-ol] | < 50 nM | 96% | 99% |
| Cc1nn(Cc2cccc(F)c2)cc1-c1c[nH]c2ncc(-c3ccc(N4CCN(C[C@H](C)O)CC4)cc3)cc12 [Example 130, (S)-1-(4-(4-(3-(1-(3-fluorobenzyl)-3-methyl-1H-pyrazol-4-yl)-1H-pyrrolo[2,3-b]pyridin-5-yl)phenyl)piperazin-1-yl)propan-2-ol] | < 50 nM | 88% | 99% |
| c1cncc(Cn2cc(-c3c[nH]c4ncc(-c5ccc(N6CCNCC6)cc5)cc34)cn2)c1 [Example 131, 5-(4-(piperazin-1-yl)phenyl)-3-(1-(pyridin-3-ylmethyl)-1H-pyrazol-4-yl)-1H-pyrrolo[2,3-b]pyridine] | < 50 nM | 83% | 99% |
